According to patent publication US20210277009A1, “PRMT5 INHIBITORS” (Merck Sharp & Dohme Corp., priority 2018, published 2021):
Structures can show the parent of a compound that is named as a salt. Where two headings read alike, the source gives them in different places.

Legend:
[1] = test system: symmetric dimethylation of arginine (SDMA) of PRMT5 substrates in MCF-7 cells; test: PRMT5 Cell Target Engagement (TE) Assay; assay type: cell-based; conditions: treated for 3 days, nuclear SDMA by high content imaging, top concentration 10000 nM
Source text: The PRMT5 TE assay is a biomarker assay for identifying compounds that inhibit symmetric dimethylation of arginine (SDMA) of PRMT5 substrates. The following substrates have been reported for PRMT5: histone H2A and H4 R3, Histone H3 R2, Histone H3 R8, spliceosome Sm proteins, ribosomal protein RPS10, p53, FEN1, nudeoplasmin, nucleolin, EGFR and EBNA. The assay will focus on detecting symmetrically dimethylated nuclear proteins using high content imaging technology. Detection of the expression of symmetrically dimethylated nuclear proteins is through a mixture of primary rabbit monoclonal antibodies to SDMA (CST 13222), which in turn recognized by an Alexafluor 488 dye-conjugated anti-rabbit IgG secondary antibody. The IN Cell Analyzer 2200 or Opera-Phenix measures nuclear Alexafluor 488 fluorescent dye intensity that is directly related to the level of expression of symmetrically dimethylated nuclear proteins at the single cell level. Nuclear AF488 dye intensities are compared to the mean value for DMSO treated cells (MIN) to report percent of inhibition for each compound-treated well.
In this assay, the cell potency (EC50) of each compound was determined from a ten point (1:3 serial dilution; top compound concentration of 10000 nM) titration curve using the following outlined procedure. Each well of a BD falcon collagen coated black/clear bottom 384-well plate was seeded with 4000 MCF-7 cells in 30 μl media and allowed to attach for 5 h. Media is ATCC-formulated Eagle's Minimum Essential Medium, Catalog No. 30-2003. To make the complete growth medium, the following components were added to the base medium: 0.01 mg/ml human recombinant insulin; fetal bovine serum to a final concentration of 10%. Additional 30 μl of media containing 2× compounds were added to each well. Cells were treated for 3 days in 37° C. CO2 incubator. On day 3, cells were fixed with Cytofix, permeablized with 0.4% Triton-X-100/Cytofix, and washed with D-PBS without Ca/Mg. Cells were blocked with Licor Odessey blocking reagent for 1 h at room temperature, followed by incubation with anti-SDMA (1:1000) antibody at 4° C. overnight. 1° antibody was removed, followed by three washings with DPBS without Ca/Mg and 0.05% Tween20. Hoechst (5 μg/ml), Cell Mask deep stain (1:2000) and Alexa488-conjugated goat anti-rabbit IgG (2 μg/mL) was added for 1 hour at room temperature. A final washing step (three washes) was performed before sealing plate for imaging on In Cell Analyzer 2200 or Opera-Phenix. Images from analyzer were uploaded to Columbus (at WP or BOS) for image analysis. IC50 values were determined by 4 parameters robust fit of percent fluorescence units vs. (Logic) compound concentrations.

[2] = molecular target: T1, PRMT5-MEP50 enzyme complex (Homo sapiens, UniProt O14744); test: PRMT5-MEP50 Enzyme Methylation Assay; assay type: biochemical
T1 construct: 1.25 nM of Full-length (FL)-PRMT5-MEP50 enzyme complex; made in house; host or cells: baculovirus-transfected Sf21 cells
T1 sequence (O14744 whole entry): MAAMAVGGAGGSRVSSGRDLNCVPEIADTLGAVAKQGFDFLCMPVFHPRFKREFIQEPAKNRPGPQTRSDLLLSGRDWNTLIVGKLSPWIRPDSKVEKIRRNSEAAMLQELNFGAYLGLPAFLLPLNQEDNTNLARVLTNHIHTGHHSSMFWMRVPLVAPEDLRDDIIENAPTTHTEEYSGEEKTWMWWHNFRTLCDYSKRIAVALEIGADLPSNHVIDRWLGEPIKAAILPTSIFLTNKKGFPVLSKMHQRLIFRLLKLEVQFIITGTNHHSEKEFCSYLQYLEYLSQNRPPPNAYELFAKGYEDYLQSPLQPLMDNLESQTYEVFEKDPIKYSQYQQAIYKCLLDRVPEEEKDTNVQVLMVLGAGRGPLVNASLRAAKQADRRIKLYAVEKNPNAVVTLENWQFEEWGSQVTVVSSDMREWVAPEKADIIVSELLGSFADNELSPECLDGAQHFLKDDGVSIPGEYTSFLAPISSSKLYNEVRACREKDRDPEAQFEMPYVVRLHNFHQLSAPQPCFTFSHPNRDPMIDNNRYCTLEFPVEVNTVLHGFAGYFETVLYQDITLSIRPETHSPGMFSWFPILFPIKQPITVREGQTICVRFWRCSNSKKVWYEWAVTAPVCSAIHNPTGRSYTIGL
T1 sequence (Q9BQA1 whole entry partner): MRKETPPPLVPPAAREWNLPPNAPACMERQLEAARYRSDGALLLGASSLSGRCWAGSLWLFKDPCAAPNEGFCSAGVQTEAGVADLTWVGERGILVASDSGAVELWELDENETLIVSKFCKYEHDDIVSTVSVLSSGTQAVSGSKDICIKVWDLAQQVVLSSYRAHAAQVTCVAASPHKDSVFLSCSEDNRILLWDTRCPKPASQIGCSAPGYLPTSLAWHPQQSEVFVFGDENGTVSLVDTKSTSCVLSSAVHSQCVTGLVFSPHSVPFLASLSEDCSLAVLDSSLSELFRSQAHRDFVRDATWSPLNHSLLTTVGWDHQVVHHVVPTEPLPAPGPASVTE
Procedure: PRMT5-MEP50 biochemical assay is a direct measurement of the methylation activity of the enzyme complex on a short peptide substrate derived from the N-terminus of H4 histone. Methylation experiment is performed with recombinant PRMT5-MEP50 protein complex. The assessment of inhibitory effect of small molecules is measured by tire effectiveness of the compounds to inhibit tins reaction (EC50).
In this assay, the potency (EC50) of each compound was determined from a twenty-point (1:2 serial dilution; top compound concentration of 100000 nM) titration curve using the following outlined procedure. To each well of a white ProxiPlus 384 well-plate, 100 nL of compound (1% DMSO in final assay volume of 10 μL) was dispensed, followed by the addition of 8 μL of 1× assay buffer (50 mM Bicine pH 8.0, 1 mM DTT, 0.004% Tween20, 0.01% BSA) containing 1.25 nM of Full-length (FL)-PRMT5-MEP50 enzyme complex (recombinant proteins from baculovirus-transfected Sf21 cells: FL-PRMT5; MW=[…] and FL-MEP50; MW=38614) and 1 μL of 150 μM S-(5′-Adenosyl)-L-Methionine Chloride (SAM). Plates were sealed and placed in a 37° C. humidified chamber for a 60 minutes pre-incubation with compound. Subsequently, each reaction was initiated by the addition of 1 μL 1× assay buffer containing 750 nM biotinylated H4R3(Mel) peptide. The final reaction in each well of 10 μL consists of 1.0 nM PRMT5-MEP50, 75 nM biotinylated-peptide, and […] SAM. Methylation reactions were allowed to proceed for 150 minutes in a sealed plate at 37° C. Reactions were immediately quenched by the addition of 1 μL of 5% formic acid. Plates were then frozen and shipped to SAMDITM Tech Inc. to determine the percent conversion from H4R3(Mel) to H4R3(Me2). Dose-response curves were generated by plotting percent effect (% product conversion; Y-axis) vs. Log 10 compound concentrations (X-axis). EC50 values were determined by non-linear regression according to models for either sigmoidal (4 parameters) or biphasic (7 parameters) dose-response curves.

[3] = single EC50 from 4 parameters single site sigmoidal model, or first EC50 of 7 parameters biphasic model, 1.0 nM PRMT5-MEP50, H4R3(Me1) peptide, SAM, read-out: Enzyme Methylation Assay (EC50 or EC50_1)
[4] = second EC50 of 7 parameters biphasic model, read-out: Enzyme Methylation Assay (EC50_2)

| SMILES | EC50 ([1]; Homo sapiens, MCF7, 72 h) [nM] | EC50 [2, 3] [nM] | EC50 [1] [nM] | EC50 [2, 4] [nM] |
| --- | --- | --- | --- | --- |
| Nc1ccc2ccc(CC[C@H]3S[C@@H](n4ccc5c(N)ncnc54)[C@H](O)[C@@H]3O)cc2n1 [Example 14, (2R,3R,4S,5R)-2-(4-amino-7H-pyrrolo[2,3-d]pyrimidin-7-yl)-5-(2-(2-aminoquinolin-7-yl)ethyl)tetrahydrothiophene-3,4-diol TFA salt] | 0.7 | 0.3 | – | – |
| Cc1ncnc2c1ccn2[C@@H]1S[C@@H](CCc2ccc3ccc(N)nc3c2)[C@@H](O)[C@H]1O [Example 16, (2S,3S,4R,5R)-2-[2-(2-aminoquinolin-7-yl)ethyl]-5-(4-methyl-7H-pyrrolo[2,3-d]pyrimidin-7-yl)tetrahydrothiophene-3,4-diol] | 1.6 | 1.7 | – | – |
| Cc1ncnc2c1ccn2[C@@H]1S[C@@H](CCc2ccc3cc4c(nc3c2)NC(C)C4)[C@@H](O)[C@H]1O (single isomer, unassigned) [Example 39, (2S,3S,4R,5R)-2-(2-((R or S)-2-methyl-2,3-dihydro-1H-pyrrolo[2,3-b]quinolin-7-yl)ethyl)-5-(4-methyl-7H-pyrrolo[2,3-d]pyrimidin-7-yl)tetrahydrothiophene-3,4-diol] | – | 21.9 | 2440 | – |
| Cc1nc(N)nc2c1ccn2[C@@H]1S[C@H](CCc2ccc3cc(Br)c(N)nc3c2)[C@@H](O)[C@H]1O [Example 38, (2R,3S,4R,5R)-2-(2-(2-amino-3-bromoquinolin-7-yl)ethyl)-5-(2-amino-4-methyl-7H-pyrrolo[2,3-d]pyrimidin-7-yl)tetrahydrothiophene-3,4-diol] | 7.2 | 0.5 | – | – |
| Nc1nc2cc(CC[C@H]3S[C@@H](n4cc(F)c5c(N)ncnc54)[C@H](O)[C@@H]3O)ccc2cc1Br [Example 37, (2R,3S,4R,5R)-2-(2-(2-amino-3-bromoquinolin-7-yl)ethyl)-5-(4-amino-5-fluoro-7H-pyrrolo[2,3-d]pyrimidin-7-yl)tetrahydrothiophene-3,4-diol] | 9.5 | 0.4 | – | 16.2 |
| Cc1ncnc2c1ccn2[C@@H]1SC(CCc2ccc3ccc(NCC(F)F)nc3c2)[C@@H](O)[C@H]1O (stereo in doubt) [Example 27, (2S,3S,4R,5R)-2-(2-{2-[(2,2-difluoroethyl)amino]quinolin-7-yl}ethyl)-5-(4-methyl-7H-pyrrolo[2,3-d]pyrimidin-7-yl)tetrahydrothiophene-3,4-diol] | – | 47.7 | 55 | – |
| CC1(COc2ccc3cc(Br)c(N)nc3c2)SC(n2ccc3c(N)ncnc32)C(O)C1O [Example 7, (2R,3R,4R,5R)-2-(((2-amino-3-bromoquinolin-7-yl)oxy)methyl-5-(4-amino-7H-pyrrolo[2,3-d]pyrimidin-7-yl)-2-methyltetrahydrothiophene-3,4-diol] | 122 | 2.5 | – | 531 |
| Cc1cc2ccc(CC[C@H]3S[C@@H](n4ccc5c(C)ncnc54)[C@H](O)[C@@H]3O)cc2nc1N (single isomer, unassigned) [Example 28] | 1.4 | 0.7 | – | – |
| Nc1ncnc2c1ccn2[C@@H]1S[C@H](COc2ccc3ccc(NCC4CC4)nc3c2)[C@@H](O)[C@H]1O [Example 4, 7-(5-O-{2-[(cyclopropylmethyl)amino]quinolin-7-yl}-4-thio-beta-D-ribofuranosyl)-7H-pyrrolo[2,3-d]pyrimidin-4-amine] | 50.5 | 1.2 | – | 569 |
| Nc1ccc2ccc(OC[C@H]3S[C@@H](n4ccc5c(N)ncnc54)[C@H](O)[C@@H]3O)cc2n1 [Example 11, (2R,3R,4S,5R)-2-(4-amino-7H-pyrrolo[2,3-d]pyrimidin-7-yl)-5-(((2-aminoquinolin-7-yl)oxy)methyl)tetrahydrothiophene-3,4-diol] | 87.1 | 0.7 | – | 55 |
| C[C@]1(CCc2ccc3cc(Br)c(N)nc3c2)S[C@@H](n2ccc3c(Cl)ncnc32)[C@H](O)[C@@H]1O [Example 31, (2R,3S,4R,5R)-2-(2-(2-amino-3-bromoquinolin-7-yl)ethyl)-5-(4-chloro-7H-pyrrolo[2,3-d]pyrimidin-7-yl)-2-methyltetrahydrothiophene-3,4-diol] | 53.4 | 0.7 | – | – |
| Cc1ncnc2c1ccn2[C@@H]1S[C@@H](CCc2ccc3cc(F)c(N)nc3c2)[C@@H](O)[C@H]1O [Example 23, (2S,3S,4R,5R)-2-[2-(2-amino-3-fluoroquinolin-7-yl)ethyl]-5-(4-methyl-7H-pyrrolo[2,3-d]pyrimidin-7-yl)tetrahydrothiophene-3,4-diol] | 41.9 | 58.3 | – | – |
| COc1ncnc2c1ccn2[C@@H]1S[C@H](COc2ccc3ccc(N)nc3c2)[C@@H](O)[C@H]1O [Example 10, (2R,3S,4R,5R)-2-(((2-aminoquinolin-7-yl)oxy)methyl)-5-(4-methoxy-7H-pyrrolo[2,3-d]pyrimidin-7yl)tetrahydrothiophene-3,4-diol] | 6020 | 19.5 | – | 16200 |
| Cc1ncnc2c1ccn2[C@@H]1S[C@@H](CCc2ccc3cc(C(F)F)c(N)nc3c2)[C@@H](O)[C@H]1O [Example 41, (2S,3S,4R,5R)-2-(2-(2-amino-3-(difluoromethyl)quinolin-7-yl)ethyl)-5-(4-methyl-7H-pyrrolo[2,3-d]pyrimidin-7-yl)tetrahydrothiophene-3,4-diol] | 123 | 1.2 | – | 661 |
| C[C@]1(CCc2ccc3cc(Br)c(N)nc3c2)S[C@@H](n2ccc3c(N)ncnc32)[C@H](O)[C@@H]1O [Example 30] | 0.5 | 0.3 | – | – |
| Cc1ncnc2c1ccn2[C@@H]1S[C@](C)(CCc2ccc3cc(Br)c(N)nc3c2)[C@@H](O)[C@H]1O [Example 32] | 5.6 | 0.6 | – | – |
| Cc1ncnc2c1ccn2[C@@H]1S[C@H](CCc2ccc3ccc(NCC(F)F)nc3c2)[C@@H](O)[C@H]1O [Example 26, (2R,3S,4R,5R)-2-(2-{2-[(2,2-difluoroethyl)amino]quinolin-7-yl}ethyl)-5-(4-methyl-7H-pyrrolo[2,3-d]pyrimidin-7-yl)tetrahydrothiophene-3,4-diol] | – | 59.6 | 10.5 | – |
| Cc1ncnc2c1ccn2[C@@H]1S[C@@H](CCc2ccc3cc(C(F)(F)F)c(N)nc3c2)[C@@H](O)[C@H]1O [Example 21, (2S,3S,4R,5R)-2-{2-[2-amino-3-(trifluoromethyl)quinolin-7-yl]ethyl}-5-(4-methyl-7H-pyrrolo[2,3-d]pyrmidin-7-yl)tetrahydrothiophene-3,4-diol] | ≥ 10000 | 7.4 | – | – |
